Measured values: US20250084095A1, “Aminopyrimidine Derivatives as Cyclin-Dependent Kinase Inhibitors” (Accutar Biotechnology Inc., priority 2023, published 2025)
Each block holds one compound with its values, some of them ahead of it.

What was measured:
[1] = test system: Phospho-Rb (Ser807/811) in MCF7 cells; assay: Phospho-Rb expression inhibition in MCF7 cells quantified by in cell Western; type: cell-based, human; settings: Homo sapiens, MCF7, 24 h, 24 hours, in cell Western, read-out: MCF7 pRb IC50
In short: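 MCF7 cells were seeded at 20,000/well, grown overnight, then treated 24 h at 37 °C with compound dilutions (0.1% DMSO from 1000× stocks). Fixed cells were co-stained for phospho-Rb Ser807/811 and total Rb. Near-infrared dual-channel in-cell Western imaging was the read-out.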

22RV1 cells = assay: Cell growth inhibition of 22RV1 cells (CellTiter-Glo); type: cell-based; settings: Homo sapiens, 22Rv1, 120 h, 5 days, CellTiter-Glo, read-out: 22RV1 Cell Growh GI50
In short: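 22RV1 cells were plated in RPMI1640 with FBS (20% in one version, 10% in the other) and dosed next day at various concentrations from DMSO stocks. After 5 days at 37 °C, viability was measured by CellTiter-Glo luminescence.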

Compound: CC(C)(O)C1=Nc2c(F)cc(-c3nc(N[C@@H]4C[C@H]5CO[C@H](O5)[C@H]4O)ncc3Cl)cc2C12CCCC2 [Compound 33, (1S,3R,4S,5R)-3-((5-chloro-4-(7′-fluoro-2′-(2-hydroxypropan-2-yl)spiro[cyclopentane-1,3′-indol]-5′-yl)pyrimidin-2-yl)amino)-6,8-dioxabicyclo[3.2.1]octan-4-ol]
- IC50 [1]: 40 to 150 nM
- GI50 (22RV1 cells): 120 to 450 nM

Compound: CC1=Nc2c(F)cc(-c3nc(N[C@@H]4C[C@H]5CO[C@H](O5)[C@H]4O)ncc3Cl)cc2C12CCCC2 [Compound 32, (1S,3R,4S,5R)-3-((5-chloro-4-(7′-fluoro-2′-methylspiro[cyclopentane-1,3′-indol]-5′-yl)pyrimidin-2-yl)amino)-6,8-dioxabicyclo[3.2.1]octan-4-ol]
- IC50 [1]: ≤ 40 nM
- GI50 (22RV1 cells): ≤ 120 nM

Compound: Cc1c(CN2CC(O)C2)n(C(C)C)c2cc(-c3nc(N[C@@H]4C[C@H]5CO[C@H](O5)[C@H]4O)ncc3F)ccc2c1=O [Compound 198, 7-(5-fluoro-2-(((1S,3R,4S,5R)-4-hydroxy-6,8-dioxabicyclo[3.2.1]octan-3-yl)amino)pyrimidin-4-yl)-2-((3-hydroxyazetidin-1-yl)methyl)-1-isopropyl-3-methylquinolin-4(1H)-one]
- IC50 [1]: 150 to 1000 nM
- GI50 (22RV1 cells): 450 to 3000 nM

Compound: Cc1c(CN2CCC[C@@H](O)C2)n(C(C)C)c2cc(-c3nc(N[C@@H]4C[C@H]5CO[C@H](O5)[C@H]4O)ncc3F)ccc2c1=O [Compound 291, 7-(5-fluoro-2-(((1S,3R,4S,5R)-4-hydroxy-6,8-dioxabicyclo[3.2.1]octan-3-yl)amino)pyrimidin-4-yl)-2-(((R)-3-hydroxypiperidin-1-yl)methyl)-1-isopropyl-3-methylquinolin-4(1H)-one]
- IC50 [1]: 150 to 1000 nM
- GI50 (22RV1 cells): 120 to 450 nM

Compound: CC(C)n1c(CN2[C@@H](C)COC[C@@H]2C)cc(=O)c2ccc(-c3nc(N[C@@H]4C[C@H]5CO[C@H](O5)[C@H]4O)ncc3F)cc21 [Compound 209, 2-(((3S,5S)-3,5-dimethylmorpholino)methyl)-7-(5-fluoro-2-(((1S,3R,4S,5R)-4-hydroxy-6,8-dioxabicyclo[3.2.1]octan-3-yl)amino)pyrimidin-4-yl)-1-isopropylquinolin-4(1H)-one]
- IC50 [1]: 40 to 150 nM
- GI50 (22RV1 cells): 120 to 450 nM

Compound: Cc1c(CN2CC[C@@H](F)C2)n(C(C)C)c2cc(-c3nc(N[C@@H]4C[C@H]5CO[C@H](O5)[C@H]4O)ncc3F)ccc2c1=O [Compound 292, 7-(5-fluoro-2-(((1S,3R,4S,5R)-4-hydroxy-6,8-dioxabicyclo[3.2.1]octan-3-yl)amino)pyrimidin-4-yl)-2-(((R)-3-fluoropyrrolidin-1-yl)methyl)-1-isopropyl-3-methylquinolin-4(1H)-one]
- IC50 [1]: 40 to 150 nM
- GI50 (22RV1 cells): 120 to 450 nM

Compound: Cc1c(CN2C[C@@H](C)OC2=O)n(C(C)C)c2cc(-c3nc(N[C@@H]4C[C@H]5CO[C@H](O5)[C@H]4O)ncc3F)ccc2c1=O [Compound 271, (R)-3-((7-(5-fluoro-2-(((1S,3R,4S,5R)-4-hydroxy-6,8-dioxabicyclo[3.2.1]octan-3-yl)amino)pyrimidin-4-yl)-1-isopropyl-3-methyl-4-oxo-1,4-dihydroquinolin-2-yl)methyl)-5-methyloxazolidin-2-one]
- IC50 [1]: 150 to 1000 nM
- GI50 (22RV1 cells): > 3000 nM

Compound: Cc1c(C(=O)N2CCOCC2)n(C(C)C)c2cc(-c3nc(N[C@@H]4C[C@H]5CO[C@H](O5)[C@H]4O)ncc3Cl)ccc2c1=O [Compound 214, 7-(5-chloro-2-(((1S,3R,4S,5R)-4-hydroxy-6,8-dioxabicyclo[3.2.1]octan-3-yl)amino)pyrimidin-4-yl)-1-isopropyl-3-methyl-2-(morpholine-4-carbonyl)quinolin-4(1H)-one]
- IC50 [1]: > 1000 nM
- GI50 (22RV1 cells): > 3000 nM

Compound: Cc1c(CN2CCOC2=O)n(C(C)C)c2cc(-c3nc(N[C@@H]4C[C@H]5CO[C@H](O5)[C@H]4O)ncc3F)ccc2c1=O [Compound 211, 3-((7-(5-fluoro-2-(((1S,3R,4S,5R)-4-hydroxy-6,8-dioxabicyclo[3.2.1]octan-3-yl)amino)pyrimidin-4-yl)-1-isopropyl-3-methyl-4-oxo-1,4-dihydroquinolin-2-yl)methyl)oxazolidin-2-one]
- IC50 [1]: > 1000 nM
- GI50 (22RV1 cells): > 3000 nM

Compound: Cc1c(C(F)F)c(=O)c2ccc(-c3nc(N[C@@H]4C[C@H]5CO[C@H](O5)[C@H]4O)ncc3F)cc2n1C(C)C [Compound 192, 3-(difluoromethyl)-7-(5-fluoro-2-(((1S,3R,4S,5R)-4-hydroxy-6,8-dioxabicyclo[3.2.1]octan-3-yl)amino)pyrimidin-4-yl)-1-isopropyl-2-methylquinolin-4(1H)-one]
- IC50 [1]: 150 to 1000 nM
- GI50 (22RV1 cells): 120 to 450 nM

Compound: CC(C)n1c(CN2CC[C@@H](F)C2)cc(=O)c2ccc(-c3nc(N[C@@H]4C[C@H]5CO[C@H](O5)[C@H]4O)ncc3F)cc21 [Compound 210, 7-(5-fluoro-2-(((1S,3R,4S,5R)-4-hydroxy-6,8-dioxabicyclo[3.2.1]octan-3-yl)amino)pyrimidin-4-yl)-2-(((R)-3-fluoropyrrolidin-1-yl)methyl)-1-isopropylquinolin-4(1H)-one]
- IC50 [1]: 150 to 1000 nM
- GI50 (22RV1 cells): 450 to 3000 nM

Compound: Cc1c(C)n(C(C)C)c2cc(-c3nc(N[C@@H]4C[C@H]5CO[C@H](O5)[C@H]4O)ncc3F)ccc2c1=O [Compound 190, 7-(5-fluoro-2-(((1S,3R,4S,5R)-4-hydroxy-6,8-dioxabicyclo[3.2.1]octan-3-yl)amino)pyrimidin-4-yl)-1-isopropyl-2,3-dimethylquinolin-4(1H)-one]
- IC50 [1]: 40 to 150 nM
- GI50 (22RV1 cells): 120 to 450 nM

Now from value to compound:

- IC50 [1]: 40 to 150 nM
- GI50 (22RV1 cells): 450 to 3000 nM
Compound: CC(C)n1c(N2CCOC2=O)nc2c(F)cc(-c3nc(N[C@@H]4C[C@H]5CO[C@H](O5)[C@H]4O)ncc3Cl)cc21 [Compound 272, 3-(6-(5-chloro-2-(((1S,3R,4S,5R)-4-hydroxy-6,8-dioxabicyclo[3.2.1]octan-3-yl)amino)pyrimidin-4-yl)-4-fluoro-1-isopropyl-1H-benzo[d]imidazol-2-yl)oxazolidin-2-one]

- IC50 [1]: 150 to 1000 nM
- GI50 (22RV1 cells): > 3000 nM
Compound: CC(C)(O)c1cnc2cc(-c3nc(N[C@@H]4C[C@H]5CO[C@H](O5)[C@H]4O)ncc3Cl)cc(F)c2n1 [Compound 295, (1S,3R,4S,5R)-3-((5-chloro-4-(8-fluoro-2-(2-hydroxypropan-2-yl)quinoxalin-6-yl)pyrimidin-2-yl)amino)-6,8-dioxabicyclo[3.2.1]octan-4-ol]

- IC50 [1]: 150 to 1000 nM
- GI50 (22RV1 cells): ≤ 120 nM
Compound: Cc1c(C(C)(C)O)nnc2c(F)cc(-c3nc(N[C@@H]4C[C@H]5CO[C@H](O5)[C@H]4O)ncc3Cl)cc12 [Compound 279, (1S,3R,4S,5R)-3-((5-chloro-4-(8-fluoro-3-(2-hydroxypropan-2-yl)-4-methylcinnolin-6-yl)pyrimidin-2-yl)amino)-6,8-dioxabicyclo[3.2.1]octan-4-ol]

- IC50 [1]: ≤ 40 nM
- GI50 (22RV1 cells): 120 to 450 nM
Compound: CC(C)n1c(C2CC(F)C2)nc2c(F)cc(-c3nc(N[C@@H]4C[C@H]5CO[C@H](O5)[C@H]4O)ncc3Cl)cc21 (stereo partly drawn) [Compound 242, (1S,3R,4S,5R)-3-((5-chloro-4-(4-fluoro-2-((1s,3S)-3-fluorocyclobutyl)-1-isopropyl-1H-benzo[d]imidazol-6-yl)pyrimidin-2-yl)amino)-6,8-dioxabicyclo[3.2.1]octan-4-ol]

- IC50 [1]: > 1000 nM
- GI50 (22RV1 cells): > 3000 nM
Compound: CC(C)(O)c1cc2cc(-c3nc(N[C@@H]4C[C@H]5CO[C@H](O5)[C@H]4O)ncc3Cl)cc(F)c2nn1 [Compound 258, (1S,3R,4S,5R)-3-((5-chloro-4-(8-fluoro-3-(2-hydroxypropan-2-yl)cinnolin-6-yl)pyrimidin-2-yl)amino)-6,8-dioxabicyclo[3.2.1]octan-4-ol]
